{"source": "PubChem BioAssay (NCI)", "assay_in_all_cases": "NCI-60 cell line screen, 48 h", "key": {"NCI-H226 lung": {"test_system": "NCI-H226 lung"}, "EKVX NSCLC": {"test_system": "EKVX NSCLC"}, "TK-10 renal": {"test_system": "TK-10 renal"}, "ACHN renal": {"test_system": "ACHN renal"}, "MOLT-4 leukemia": {"test_system": "MOLT-4 leukemia"}, "A498 renal": {"test_system": "A498 renal"}, "MCF7 breast": {"test_system": "MCF7 breast"}, "NCI-H460 lung": {"test_system": "NCI-H460 lung"}, "HOP-62 NSCLC": {"test_system": "HOP-62 NSCLC"}, "MDA-MB-435": {"test_system": "MDA-MB-435"}, "OVCAR-4 ovarian": {"test_system": "OVCAR-4 ovarian"}, "SF-539 CNS": {"test_system": "SF-539 CNS"}, "HOP-92 NSCLC": {"test_system": "HOP-92 NSCLC"}, "SK-MEL-28 melanoma": {"test_system": "SK-MEL-28 melanoma"}, "HCT-15 colon": {"test_system": "HCT-15 colon"}, "HL-60(TB) leukemia": {"test_system": "HL-60(TB) leukemia"}, "T-47D breast": {"test_system": "T-47D breast"}, "HT29 colon": {"test_system": "HT29 colon"}, "OVCAR-8 ovarian": {"test_system": "OVCAR-8 ovarian"}, "CCRF-CEM leukemia": {"test_system": "CCRF-CEM leukemia"}, "MDA-MB-231 breast": {"test_system": "MDA-MB-231 breast"}, "SK-MEL-2 melanoma": {"test_system": "SK-MEL-2 melanoma"}, "UACC-62 melanoma": {"test_system": "UACC-62 melanoma"}, "HCT-116 colon": {"test_system": "HCT-116 colon"}, "SF-295 CNS": {"test_system": "SF-295 CNS"}, "PC-3 prostate": {"test_system": "PC-3 prostate"}, "A549 NSCLC": {"test_system": "A549 NSCLC"}, "MALME-3M melanoma": {"test_system": "MALME-3M melanoma"}, "U251 CNS": {"test_system": "U251 CNS"}, "UO-31 renal": {"test_system": "UO-31 renal"}, "LOX IMVI melanoma": {"test_system": "LOX IMVI melanoma"}, "HS 578T breast": {"test_system": "HS 578T breast"}, "K-562 leukemia": {"test_system": "K-562 leukemia"}, "NCI/ADR-RES ovarian": {"test_system": "NCI/ADR-RES ovarian"}, "SNB-19 CNS": {"test_system": "SNB-19 CNS"}, "DU-145 prostate": {"test_system": "DU-145 prostate"}, "UACC-257 melanoma": {"test_system": "UACC-257 melanoma"}, "BT-549 breast": {"test_system": "BT-549 breast"}, "M14 melanoma": {"test_system": "M14 melanoma"}, "COLO 205 colon": {"test_system": "COLO 205 colon"}, "RXF 393 renal": {"test_system": "RXF 393 renal"}, "SN12C renal": {"test_system": "SN12C renal"}, "NCI-H23 lung": {"test_system": "NCI-H23 lung"}, "IGROV1 ovarian": {"test_system": "IGROV1 ovarian"}, "OVCAR-5 ovarian": {"test_system": "OVCAR-5 ovarian"}, "SR leukemia": {"test_system": "SR leukemia"}, "RPMI-8226 leukemia": {"test_system": "RPMI-8226 leukemia"}, "OVCAR-3 ovarian": {"test_system": "OVCAR-3 ovarian"}, "CAKI-1 renal": {"test_system": "CAKI-1 renal"}, "SF-268 CNS": {"test_system": "SF-268 CNS"}, "SK-MEL-5 melanoma": {"test_system": "SK-MEL-5 melanoma"}, "SW-620 colon": {"test_system": "SW-620 colon"}, "SK-OV-3 ovarian": {"test_system": "SK-OV-3 ovarian"}}, "note": "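48-hour exposure; five concentrations; linearly interpolated endpoints. TGI is the concentration that stops growth completely.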"}
{"smiles": "COC(=O)c1c(O)ccc2c1c1c(n2Cc2cccc(C)c2)C(=O)c2ccccc2C1", "values": [{"measurement": "TGI", "setting": "NCI-H226 lung", "result": "> 75", "unit": "µM"}, {"measurement": "TGI", "setting": "EKVX NSCLC", "result": 10.4, "unit": "µM"}, {"measurement": "TGI", "setting": "TK-10 renal", "result": "> 75", "unit": "µM"}, {"measurement": "TGI", "setting": "ACHN renal", "result": "> 75", "unit": "µM"}, {"measurement": "TGI", "setting": "MOLT-4 leukemia", "result": 44.5, "unit": "µM"}, {"measurement": "TGI", "setting": "A498 renal", "result": "> 75", "unit": "µM"}, {"measurement": "TGI", "setting": "MCF7 breast", "result": "> 75", "unit": "µM"}, {"measurement": "TGI", "setting": "NCI-H460 lung", "result": "> 75", "unit": "µM"}, {"measurement": "TGI", "setting": "HOP-62 NSCLC", "result": 51.6, "unit": "µM"}, {"measurement": "TGI", "setting": "MDA-MB-435", "result": 42.7, "unit": "µM"}, {"measurement": "TGI", "setting": "OVCAR-4 ovarian", "result": 25.3, "unit": "µM"}, {"measurement": "TGI", "setting": "SF-539 CNS", "result": 61.4, "unit": "µM"}, {"measurement": "TGI", "setting": "HOP-92 NSCLC", "result": "> 75", "unit": "µM"}, {"measurement": "TGI", "setting": "SK-MEL-28 melanoma", "result": 0.71, "unit": "µM"}, {"measurement": "TGI", "setting": "HCT-15 colon", "result": "> 75", "unit": "µM"}, {"measurement": "TGI", "setting": "HL-60(TB) leukemia", "result": "> 75", "unit": "µM"}, {"measurement": "TGI", "setting": "T-47D breast", "result": 32.7, "unit": "µM"}, {"measurement": "TGI", "setting": "HT29 colon", "result": 19.9, "unit": "µM"}, {"measurement": "TGI", "setting": "OVCAR-8 ovarian", "result": "> 75", "unit": "µM"}, {"measurement": "TGI", "setting": "CCRF-CEM leukemia", "result": 36.8, "unit": "µM"}, {"measurement": "TGI", "setting": "MDA-MB-231 breast", "result": "> 75", "unit": "µM"}, {"measurement": "TGI", "setting": "SK-MEL-2 melanoma", "result": "> 75", "unit": "µM"}, {"measurement": "TGI", "setting": "UACC-62 melanoma", "result": "> 75", "unit": "µM"}, {"measurement": "TGI", "setting": "HCT-116 colon", "result": 16.7, "unit": "µM"}, {"measurement": "TGI", "setting": "SF-295 CNS", "result": "> 75", "unit": "µM"}, {"measurement": "TGI", "setting": "PC-3 prostate", "result": 27.6, "unit": "µM"}, {"measurement": "TGI", "setting": "A549 NSCLC", "result": "> 75", "unit": "µM"}, {"measurement": "TGI", "setting": "MALME-3M melanoma", "result": 69.5, "unit": "µM"}, {"measurement": "TGI", "setting": "U251 CNS", "result": 66.1, "unit": "µM"}, {"measurement": "TGI", "setting": "UO-31 renal", "result": "> 75", "unit": "µM"}, {"measurement": "TGI", "setting": "LOX IMVI melanoma", "result": 67.1, "unit": "µM"}, {"measurement": "TGI", "setting": "HS 578T breast", "result": "> 75", "unit": "µM"}, {"measurement": "TGI", "setting": "K-562 leukemia", "result": "> 75", "unit": "µM"}, {"measurement": "TGI", "setting": "NCI/ADR-RES ovarian", "result": "> 75", "unit": "µM"}, {"measurement": "TGI", "setting": "SNB-19 CNS", "result": "> 75", "unit": "µM"}, {"measurement": "TGI", "setting": "DU-145 prostate", "result": "> 75", "unit": "µM"}, {"measurement": "TGI", "setting": "UACC-257 melanoma", "result": "> 75", "unit": "µM"}, {"measurement": "TGI", "setting": "BT-549 breast", "result": "> 75", "unit": "µM"}, {"measurement": "TGI", "setting": "M14 melanoma", "result": 47.1, "unit": "µM"}, {"measurement": "TGI", "setting": "COLO 205 colon", "result": 22.3, "unit": "µM"}, {"measurement": "TGI", "setting": "RXF 393 renal", "result": 30, "unit": "µM"}, {"measurement": "TGI", "setting": "SN12C renal", "result": 27.6, "unit": "µM"}, {"measurement": "TGI", "setting": "NCI-H23 lung", "result": "> 75", "unit": "µM"}, {"measurement": "TGI", "setting": "IGROV1 ovarian", "result": "> 75", "unit": "µM"}, {"measurement": "TGI", "setting": "OVCAR-5 ovarian", "result": "> 75", "unit": "µM"}, {"measurement": "TGI", "setting": "SR leukemia", "result": 29.4, "unit": "µM"}, {"measurement": "TGI", "setting": "RPMI-8226 leukemia", "result": 31, "unit": "µM"}, {"measurement": "TGI", "setting": "OVCAR-3 ovarian", "result": "> 75", "unit": "µM"}, {"measurement": "TGI", "setting": "CAKI-1 renal", "result": 46.3, "unit": "µM"}, {"measurement": "TGI", "setting": "SF-268 CNS", "result": "> 75", "unit": "µM"}, {"measurement": "TGI", "setting": "SK-MEL-5 melanoma", "result": "> 75", "unit": "µM"}, {"measurement": "TGI", "setting": "SW-620 colon", "result": "> 75", "unit": "µM"}, {"measurement": "TGI", "setting": "SK-OV-3 ovarian", "result": "> 75", "unit": "µM"}]}
